What was measured:
[1] = test system: Melanoma developing cells (CML6M); test: Colony formation, survival fraction of canine melanoma cells; type: cell-based
Description: (§1) An anti-cancer agent and a pharmaceutical composition were administered to test cells and then the cells were cultured. Then, after colonies were formed, the number of colonies was counted. Here, samples in which the concentration of the anti-cancer agent to be administered was varied were prepared, and in each sample, the survival fraction of the cells compared with the case where cells were cultured without administration of the pharmaceutical composition was measured. Regarding the type of anti-cancer agent to be administered, a predetermined anti-cancer agent was selected depending on the type of administration target cells. Note that cells that were cultured without administration of the pharmaceutical composition and the anti-cancer agent were used as a control. Hereinafter, these steps will be described.
(§2) Here, CHO cells, V79 cells, and canine-derived cancer cells were prepared as the test cells. The CHO cells are ovarian cells derived from Chinese hamsters, and the V79 cells are fibroblasts derived from the lungs of Chinese hamsters. Melanoma developing cells (CML6M) and soft tissue sarcoma developing cells (STSA-1) were used as the cancer cells.
(§3) The cancer cells were prepared by being cultured using an αMEM culture medium supplemented with 10% serum and an antibiotic. The cancer cells were prepared such that, when the concentration of the cells in a cell suspension obtained by subjecting the cultured cells to PBS washing and trypsin treatment, the concentration was within a predetermined concentration range. Here, the predetermined concentration ranges were 300 cells/well, 100 to 150 cells/well, and 500 to 1000 cells/well for the CHO/V79 cells, the melanoma cells, and the soft tissue sarcoma cells, respectively.
(§4) Next, the cancer cells were cultured in culture environments to which the anti-cancer agent was added at various concentrations, and were then allowed to form colonies. The culture periods for colony formation were a week, 10 days, and 14 days for CHO and V79, melanoma, and soft tissue sarcoma, respectively. After colonies were formed, washing using a physiological saline solution, fixation using 100% ethanol, and staining using 0.1% crystal violet were performed, and then the number of colonies per well was counted under a microscope. Note that, here, the colony was defined as containing 50 or more cells. Moreover, mitomycin C, doxorubicin, bleomycin, camptothecin, etoposide, taxol, methyl methanesulfonate, and cisplatin were used as the anti-cancer agent.
(§5) A graph with the horizontal axis representing the concentration of the anti-cancer agent and the vertical axis representing the survival fraction was created by plotting the survival fraction measurement results relative to the SQAP administration amounts, and the effect of the addition of SQAP on the survival fraction was examined. Hereinafter, the results from each anti-cancer agent will be shown in a table and described.
Canine-derived melanoma cells and soft tissue sarcoma cells were used as the cells, and doxorubicin was used as the anti-cancer agent. […] Also, the concentration of the doxorubicin administered to the soft tissue sarcoma cells was set to 0 nM, 5 nM, 10 nM, and 15 nM. […] In Table 2, survival fractions in the case where SQAP was not administered are shown with a solid line, survival fractions in the case where SQAP was administered at a concentration of 10 μM are shown with a broken line, survival fractions in the case where SQAP was administered at a concentration of 20 μM are shown with a 1-dot chain line, and survival fractions in the case where SQAP was administered at a concentration of 30 μM are shown with a 2-dot chain line.
(§6) In the above examples, the anti-cancer agent and the pharmaceutical composition were administered to the test cells and then the cells were cultured. […]

[2] = test system: soft tissue sarcoma developing cells (STSA-1); test: Colony formation, survival fraction of canine soft tissue sarcoma cells; type: cell-based
Description: as §1, §2, §3, §4, §5
Canine-derived melanoma cells and soft tissue sarcoma cells were used as the cells, and doxorubicin was used as the anti-cancer agent. The amount of the doxorubicin administered to the melanoma cell was set to 0 nM, 5 nM, 10 nM, 15 nM, 20 nM, and 25 nM. […] In Table 2, survival fractions in the case where SQAP was not administered are shown with a solid line, survival fractions in the case where SQAP was administered at a concentration of 10 μM are shown with a broken line, survival fractions in the case where SQAP was administered at a concentration of 20 μM are shown with a 1-dot chain line, and survival fractions in the case where SQAP was administered at a concentration of 30 μM are shown with a 2-dot chain line.
as §6

[3] = test system: V79 cells; test: Colony formation, survival fraction of V79 cells; type: cell-based, Chinese hamsters
Description: as §1, §2, §3
as §4, with “Moreover, mitomycin C, doxorubicin, bleomycin, camptothecin, etoposide, taxol, methyl methanesulfonate, and cisplatin were used as the anti-cancer agent.” left out
as §5, with “described. […]” for “described.”
V79 cells were used as the cells, and cisplatin was used as the anti-cancer agent. The cisplatin was administered at concentrations of 0 μg/mL, 0.1 μg/mL, 0.2 μg/mL, 0.3 μg/mL, 0.4 μg/mL, and 0.5 μg/mL.
V79 cells were used as the cells, and camptothecin was used as the anti-cancer agent. The amount of the camptothecin was set to 0 nM, 5 nM, 10 nM, 15 nM, and 20 nM.
V79 cells were used as the cells, and mitomycin C was used as the anti-cancer agent. The amount of MMC was set to 0 nM, 100 nM, 200 nM, 300 nM, 400 nM, and 500 nM. […]
V79 cells were used as the cells, and taxol was used as the anti-cancer agent. The amount of the taxol was set to 0 nM, 10 nM, 20 nM, and 30 nM.
V79 cells were used as the cells, and MMS was used as the anti-cancer agent. The amount of the MMS was set to 0 μM, 10 μM, 20 μM, 30 μM, and 40 μM.
as §6

SMILES: CCCCCCCCCCCCCCCCCC(=O)OCCCO[C@H]1O[C@H](CS(=O)(=O)O)[C@@H](O)[C@H](O)[C@H]1O [SQAP, sulfoquinovosylacylpropanediol]
- survival fraction ([1]; melanoma cells, doxorubicin 15 nM + SQAP 10 μM): about 10%
- survival fraction ([1]; melanoma cells, doxorubicin 15 nM + SQAP 20 μM): about 3%
- survival fraction ([1]; melanoma cells, doxorubicin 15 nM + SQAP 30 μM): about 0.4%
- survival fraction ([1]; melanoma developing cells, SQAP 10 μM alone): about 90%
- survival fraction ([1]; melanoma developing cells, SQAP 20 μM alone): about 85%
- survival fraction ([1]; melanoma developing cells, SQAP 30 μM alone): about 60%
- survival fraction ([1]; melanoma developing cells, doxorubicin 10 μM + SQAP 10 μM (as restated in Example 10)): about 10%
- survival fraction ([1]; melanoma developing cells, doxorubicin 10 μM + SQAP 20 μM (as restated in Example 10)): about 3%
- survival fraction ([1]; melanoma developing cells, doxorubicin 10 μM + SQAP 30 μM (as restated in Example 10)): about 0.4%
- survival fraction ([2]; soft tissue sarcoma cells, doxorubicin 10 nM + SQAP 10 μM): about 2%
- survival fraction ([2]; soft tissue sarcoma cells, doxorubicin 10 nM + SQAP 20 μM): about 2%
- survival fraction ([2]; soft tissue sarcoma cells, doxorubicin 10 nM + SQAP 30 μM): about 0.7%
- survival fraction ([2]; soft tissue sarcoma developing cells, SQAP 10 μM alone): about 90%
- survival fraction ([2]; soft tissue sarcoma developing cells, SQAP 20 μM alone): about 75%
- survival fraction ([2]; soft tissue sarcoma developing cells, SQAP 30 μM alone): about 45%
- survival fraction ([2]; soft tissue sarcoma developing cells, doxorubicin 10 μM + SQAP 10 μM (as restated in Example 10)): about 2%
- survival fraction ([2]; soft tissue sarcoma developing cells, doxorubicin 10 μM + SQAP 20 μM (as restated in Example 10)): about 2%
- survival fraction ([2]; soft tissue sarcoma developing cells, doxorubicin 10 μM + SQAP 30 μM (as restated in Example 10)): about 0.7%
- survival fraction ([3]; MMS 40 μM + SQAP 10 μM): about 7%
- survival fraction ([3]; MMS 40 μM + SQAP 20 μM): less than 1%
- survival fraction ([3]; SQAP 10 μM alone): 10%
- survival fraction ([3]; SQAP 20 μM alone): 10%
- survival fraction of cells after culture, SQAP and anti-cancer agent in combination compared with SQAP alone ([3]; any anti-cancer agent of the examples): decreased
- survival fraction ([3]; bleomycin 15 nM + SQAP 10 μM): about 20%
- survival fraction ([3]; bleomycin 15 nM + SQAP 20 μM): about 2%
- survival fraction ([3]; camptothecin 20 nM + SQAP 10 μM): about 12%
- survival fraction ([3]; camptothecin 20 nM + SQAP 20 μM): about 3%
- survival fraction ([3]; cisplatin 0.3 μg/mL + SQAP 10 μM (b65 prints 1011M)): about 8%
- survival fraction ([3]; cisplatin 0.3 μg/mL + SQAP 20 μM (b65 prints 20 without unit)): about 5%
- survival fraction ([3]; etoposide 30 nM + SQAP 10 μM): about 9%
- survival fraction ([3]; etoposide 30 nM + SQAP 20 μM): about 8%
- survival fraction ([3]; mitomycin C 500 nM + SQAP 10 μM): about 2%
- survival fraction ([3]; mitomycin C 500 nM + SQAP 20 μM): about 1.8%
- survival fraction ([3]; taxol 30 nM + SQAP 10 μM): about 2%
- survival fraction ([3]; taxol 30 nM + SQAP 20 μM): about 2%

Source: patent publication US20240131044A1, “METHOD FOR TREATING CANCER” (M.T.3, Inc., priority 2022, published 2024)
